From US12145913B2, “Inhibition of Olig2 activity” (Curtana Pharmaceuticals, Inc., priority 2016, dated 2024)
Where a name gives a salt, the structure may show the parent alone.

Columns and labels:
[1] = system: Human GBM8 glioblastoma flank tumor; experiment: Tumor growth inhibition in mouse flank tumor model, GBM8; assay type: in vivo; settings: NSG mice; for Compound + Temozolomide + radiation (median TTE): combined with temozolomide and radiation; for Compound (median TTE): compound alone
Experimental: (§1) The animals were fed ad libitum water (reverse osmosis, 1 ppm Cl) and NIH 31 Modified and Irradiated Lab Diet® consisting of 18.0% crude protein. 5.0% crude fat, and 5.0% crude fiber. The mice were housed on irradiated Enrich-o'Cobs™ bedding in static microisolators on a 12-hour light cycle at 20-22° C. (68-72° F.) and 40-60% humidity.
(§2) Human GBM4 or GBM8 glioblastoma cell lines were maintained in Complete NeuroCult Proliferation Medium containing 20 ng/mL EGF, 10 ng/mL bFGF and 2 μg/mL Heparin. The cells were cultured in ultra low attachment T75 flask (Corning REF-3814) and the resulting neurospheres were dissociated every 4-6 days using the NeuroCult Chemical Dissociation kit (Stemcell Technologies Cat #05707). Cell cultures were maintained in tissue culture flasks in a humidified incubator at 37° C., in an atmosphere of 5% CO2 and 95% air. Cell samples were collected one passage prior to cell implant and preserved in freezing media.
(§3) Cells used for implantation were harvested during log phase growth and resuspended in cold PBS containing in 50% Matrigel™ (BD Biosciences). Tumor growth was initiated on Day 1 by subcutaneous injection of GBM4 cells into the right flank of each mouse with 1×10^7 tumor cells (0.1 mL cell suspension) and tumor growth was monitored in four groups (n=8) beginning on Day 12. Groups for treatment included group 1 (vehicle), group 2 (test Olig2 inhibitor), group 3 (treatment with temozolomide and radiation) and group 4 (test Olig2 inhibitor combined with temozolomide and radiation). The tumors were measured with a caliper in two dimensions to monitor size. Tumor size was calculated using the formula. Tumor Volume (mm^3)=w^2×½: where w=width and l=length, in mm, of a tumor. Tumor weight may be estimated with the assumption that 1 mg is equivalent to 1 mm^3 of tumor volume Tumors were measured with a caliper twice weekly for the duration of the study Temozolomide (Merck & Co., Lot No. L046487) was administered orally at doses of 5 mg/kg or 10 mg/Kg). Radiation was adminstered with a Faxitron model CP-160 X-ray system. Each animal was immobilized in a live restrainer. Therapy was administered for 1.3 min at 160 KV and 6.0 mA, providing a dose of 1 gray (Gy) for each animal.
The study endpoint was a tumor volume of 2000 mm^3 or Day 152, whichever came first. Each animal was euthanized for tumor progression (TP) when its tumor reached the volume endpoint. The time to endpoint (TTE) for each animal was calculated with the following equation: […]
The data set is comprised of the first observation that exceeded the study endpoint volume and the three consecutive observations that immediately preceded the attainment of the endpoint volume. […] In instances in which the log-transformed calculated TTE preceded the day prior to reaching endpoint or exceeded the day of reaching tumor volume endpoint, a linear interpolation was performed to approximate the TTE. Any animal determined to have died from treatment-related (TR) causes was assigned a TTE value equal to the day of death. […]
Treatment outcome was evaluated from tumor growth delay (TGD), which was defined as the increase in the median TTE for a treatment group compared to the control group: TGD=T−C, expressed in days, or as a percentage of the median TTE of the control group: TGD(%)=T−C/C×100 • T=median TTE for a treatment group, • C=median TTE for the control group.

[2] = system: GBM8 human glioblastoma cells; experiment: GBM8 viability assay (Cell Titer Glo); assay type: cell-based; settings: 72 h, Table 1, 3 days incubation, luminescence
Summary of the method: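 Patient-derived GBM4 and GBM8 neurosphere cells, 4000 per well in EGF/bFGF/heparin-supplemented NeuroCult medium, were exposed to compound (added in 1% DMSO solution) for 3 days at 37° C. Growth was read by CellTiter-Glo luminescence versus DMSO wells, and IC50s came from 4-parameter fits of serial dilutions.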

[3] = Solubility of compound 174 in DI water; assay type: physicochemical; settings: thermodynamic from solid, 2 determinations, read-out: Estimated solubility
Experimental: Into a 1 dram vial was added a sample of compound 174. DI water was added until the solid was fully dissolved. Solubility was estimated from the amount of solid per mL of water added. Estimated solubility ˜30 mg/mL (2 determinations).

GBM8 cells, intracranial = experiment: Survival in orthotopic glioblastoma mouse model, GBM8; assay type: in vivo; settings: athymic nude mice, oral daily from day 4, percent increase of median versus vehicle
Text: (§4) Patient-derived xenograft samples were used in this study as a more faithful representation of human glioblastoma compared to immortalized cell lines. The maintenance of patient-derived xenografts exclusively by serial passage in mice has been advocated as a means to faithfully preserve the genetic features of the original tumors. Tumor integrity is periodically confirmed by short tandem repeat assessment. These methods were used to obtain cell suspensions of G06 cells for use in vivo. Briefly, short-term cultured cells were injected into the flank of athymic nude mice (Nu/Nu: Envigo). Tumors grown in these mice were harvested and cultured to afford cell suspension for viability studies. Mice with tumors 1-1.5 cm^3 were euthanized using CO2. Tumors were swabbed with Betadine (Carefusion #29906-016) and excised with a sterile scalpel. The tumor sample was placed in a culture plate and broken up with a sterile syringe. […] The pellets were resuspended in Stem Cell Media to a concentration of […] as measured by a hemocytometer.
(§5) G06 or cultured GBM8 cells (3×10^5, 3 μL), were injected intracranially into anesthetized female athymic nude mice (Nu/Nu: Envigo). […] Animal counts and body weight were monitored daily. Survival improvement was measured as a percent increase of the median for drug treatment versus vehicle.

[4] = system: GBM4 human glioblastoma cells; experiment: GBM4 viability assay (Cell Titer Glo); assay type: cell-based; settings: Table 3, GBM4 cells, read-out: GBM4 IC50 (Cytotoxicity)
Experimental: Cell culture medium was prepared from a NSA proliferation kit (Neurocult) and NeuroCult supplements (Stemcell Tech Cat. #05751) and treated with 20 μL of 10 μg/mL rh EGF, 10 μL of 10 μg/mL rh bFGF and 10 μL of 0.2% Heparin. In this medium, human glioblastoma cells were cultured in ultra-low attachment tissue culture flasks until 1×10^6 cells ml was achieved (GBM4 and GBM8 are distinct neurosphere cell cultures derived from these human patient tissues). GBM4 and GBM8 cells were dissociated and 10 mL of media containing 4000 human glioblastoma cells per 90 μL were transferred to an ultra-low binding 96-well plate and incubated at 37° C. overnight. On the following day, 10 μL of a 1% DMSO solution of test compound in assay medium was added to wells containing the cell suspension and the mixture incubated at 37° C. for 3 days. At this time, the plate was removed from the incubator and allowed to reach room temperature. After about 30 minutes, 50 μL of Cell Titer Glo solution was added to each well and the plate shaken for 1 minute at low speed. After 10 minutes luminescence was recorded using a Tecan Safire2 reader.
Reduction in luminescence compared to DMSO only control wells was used to determine the percentage inhibition of cell growth. IC50s were calculated using the % inhibition of luminescence for serial dilutions of compounds fitted to a 4-parameter fit within the Prism (San Diego) curve fitting program. Tables 1 (compounds 3-188) and 2 (compounds 190-212) show the GBM4 IC50 and GBM8 IC50 for compounds described herein.

[5] = system: Human GBM4 glioblastoma flank tumor; experiment: Tumor growth inhibition in mouse flank tumor model, GBM4; assay type: in vivo; settings: NSG mice
Experimental: as §1, §2
as §3, with “Tumor Volume (mm^3)=w^2×½: where w=width and l=length, in mm, of a tumor.” left out, “Radiation was adminstered with a Faxitron model CP-160 X-ray system. Each animal was immobilized in a live restrainer. Therapy was administered for 1.3 min at 160 KV and 6.0 mA, providing a dose of 1 gray (Gy) for each animal.” left out
The study endpoint was a tumor volume of 2000 mm^3 or Day 152, whichever came first. […] The time to endpoint (TTE) for each animal was calculated with the following equation: […]

[6] = system: G06 patient-derived glioblastoma cells, intracranial; experiment: Survival in orthotopic glioblastoma mouse model, G06; assay type: in vivo; settings: athymic nude mice, oral daily from day 4, percent increase of median versus vehicle
Text: as §4, §5

Compound | Compound + Temozolomide + radiation (median TTE) [1] [days] | Compound (median TTE) [1] [days] | IC50 [2] [µM] | solubility [3] [mg/mL] | GBM8: Estimated Median Survival Benefit (%) (GBM8 cells, intracranial) | IC50 [4] [µM] | Compound + Temozolomide + radiation (median TTE) ([5]; combined with temozolomide and radiation) [days] | Compound (median TTE) ([5]; compound alone, endpoint 2000 mm^3 or Day 152) [days] | G06: Estimated Median Survival Benefit (%) [6] [%]
Cc1cc(NCCCN(C)C)nc(NC(=O)Nc2ccc(Cl)c(Cl)c2)n1 [Compound 174, 1-(3,4-dichlorophenyl)-3-(4-((3-(dimethylamino)propyl)amino)-6-methylpyrimidin-2-yl)urea dimethanesulfonic acid salt] | >140.0 | 61.3 | < 0.5 | ~30 | 48 | 0.24 | 152.0 | 73.0 | 54
Cc1cc(N)nc(NC(=O)Nc2ccc(OC(F)(F)F)cc2)n1 [Compound 176, 1-(4-amino-6-methylpyrimidin-2-yl)-3-(4-(trifluoromethoxy)-phenyl)urea] | 127.9 | 56.4 | < 0.5 | – | 72 | – | – | – | 46
